Results on ten compounds are retold here after US8697064B2, “Nitrogenated derivatives of pancratistatin” (Pierre Fabre Medicament, priority 2008, dated 2014).

Series [1] concerns line HCT 116 (colon). Put plainly: Cytotoxic activity: inhibition of cell proliferation, ATPLite luminescence of residual ATP after 72 hours. The series is classed as cell-based, human. The following applies: HCT 116 colon tumoral line, 72 hours of incubation, read-out: IC50 (nM) HCT116. How it is done:
(§1) The cytotoxic activity of the compounds prepared according to the invention was evaluated by measuring inhibition of the cell proliferation of tumoral lines of human origin, such as line A549 (lung) and line HCT 116 (colon). This activity is expressed by IC50, concentration of the tested product capable of inhibiting 50% of cell proliferation. The method used is luminescence measurement of the residual ATP after 72 hours of incubation using the “ATPLite®” kit marketed by Perkin Elmer, as described in the following publication: “Measurement of cytotoxicity by ATP-based luminescence assay in primary cell cultures and cell lines”. I. A. Cree, P. E. Andreotti, Toxicology in Vitro, 11, 553-6, (1997).
(§2) The concentration values are expressed in nanomolar (nM).
Background: In ATP-based viability assays light output follows the ATP content of the culture.

Series [2] concerns line A549 (lung). Described as above. The series is classed as cell-based, human. The following applies: A549 lung tumoral line, 72 hours of incubation. How it is done: as §1, §2
Series [3] is described as follows: Solubility measurement in buffer D-PBS 1X (pH = 7.2). The following applies: for solubility: pH 7.2, aqueous buffer. From the text: The solvent used is constituted by a buffered solution at pH=7.2 “Dulbecco's Phosphate Buffered Saline” (D-PBS 1X), marketed by Gibco (reference 14190).

As usually defined, the IC50 is the point on the concentration scale where inhibition reaches its midpoint. As usually defined, the solubility is how much of the substance goes into solution per volume. Read a low solubility as little dissolved substance.

Structures are written as SMILES. “And” between values parts separate entries of the source, which are not always exact repeats. Equal values may be shown once. Where a name gives a salt, the structure may show the parent alone. Read-outs that look alike come from different tables or passages of the source.

As to `[N-]=[N+]=N[C@H]1[C@H](O)[C@@H](O)[C@@H](O)[C@@H]2NC(=O)c3c(cc4c(c3O)OCO4)[C@@H]12` [Compound 5, (1R,2S,3S,4S,4aR,11bR)-1-azido-2,3,4,7-tetrahydroxy-1,2,3,4,4a,5-hexahydro-[1,3]dioxolo[4,5-j]phenanthridin-6(11bH)-one], the IC50 came to 36 nM in series [1] (Homo sapiens) and 68 nM in series [2] (Homo sapiens).
Turning to `N[C@H]1[C@H](O)[C@@H](O)[C@@H](O)[C@@H]2NC(=O)c3c(cc4c(c3O)OCO4)[C@@H]12` [Compound 6, (1R,2S,3R,4S,4aR,11bS)-1-amino-2,3,4,7-tetrahydroxy-1,2,3,4,4a,5-hexahydro-[1,3]dioxolo[4,5-j]phenanthridin-6(11bH)-one], in series [3] (D-PBS 1X, pH = 7.2), the “Solubility Buffer D-PBS 1X (pH = 7.2), mass by volume unit” value was 508 μg/mL and the “Solubility Buffer D-PBS 1X (pH = 7.2), molarity” value worked out at 1340 μM. Also, the IC50 in series [1] (Homo sapiens) was found to be 35 nM. The compound further gave an IC50 in series [2] (Homo sapiens) of 60 nM.
For the compound `CC(C)(C)OC(=O)N[C@H]1[C@H](O)[C@@H](O)[C@@H](O)[C@@H]2NC(=O)c3c(cc4c(c3O)OCO4)[C@@H]12` [Compound 10, tert-butyl(1R,2S,3S,4S,4aR,11bR)-2,3,4,7-tetrahydroxy-6-oxo-1,2,3,4,4a,5,6,11b-octahydro-[1,3]dioxolo[4,5-j]phenanthridin-1-ylcarbamate], the values for the IC50 in series [1] (Homo sapiens) and in series [2] (Homo sapiens) were 32 nM and 270 nM, respectively.
Regarding `O=C1N[C@H]2[C@H](O)[C@H](O)[C@@H](O)[C@H](NCc3ccccc3)[C@@H]2c2cc3c(c(O)c21)OCO3` [Compound 14, (1R,2S,3R,4S,4aR,11bS)-1-(benzylamino)-2,3,4,7-tetrahydroxy-1,2,3,4,4a,5-hexahydro-[1,3]dioxolo[4,5-j]phenanthridin-6(11bH)-one], the IC50 in series [1] (Homo sapiens) was 12 nM; in series [2] (Homo sapiens), 22 nM.
For `CN(C)[C@H]1[C@H](O)[C@@H](O)[C@@H](O)[C@@H]2NC(=O)c3c(cc4c(c3O)OCO4)[C@H]21` [Compound 16, (1R,2S,3S,4S,4aR,11bR)-1-(dimethylamino)-2,3,4,7-tetrahydroxy-1,2,3,4,4a,5-hexahydro-[1,3]dioxolo[4,5-j]phenanthridin-6(11bH)-one], in that order: 81 nM and 150 nM.
Regarding `O=C1N[C@H]2[C@H](O)[C@H](O)[C@@H](O)[C@H](NC(=O)C3CCCCC3)[C@@H]2c2cc3c(c(O)c21)OCO3` [Compound 21, N-((1R,2S,3R,4S,4aR,11bS)-2,3,4,7-tetrahydroxy-6-oxo-1,2,3,4,4a,5,6,11b-octahydro-[1,3]dioxolo[4,5-j]phenanthridin-1-yl)cyclohexanecarboxamide], the values for the concentration for half-maximal inhibition (IC50) in series [1] (Homo sapiens) and in series [2] (Homo sapiens) were 13 nM and 46 nM, respectively.
In the case of `O=C(N[C@H]1[C@H](O)[C@@H](O)[C@@H](O)[C@@H]2NC(=O)c3c(cc4c(c3O)OCO4)[C@@H]12)c1ccccc1` [Compound 22, N-((1R,2S,3R,4S,4aR,11bS)-2,3,4,7-tetrahydroxy-6-oxo-1,2,3,4,4a,5,6,11b-octahydro-[1,3]dioxolo[4,5-j]phenanthridin-1-yl)benzamide], the solubility was 393 µg/mL in series [3] (Solubility Buffer D-PBS 1X (pH = 7.2), mass by volume unit, D-PBS 1X, pH = 7.2) and 867 µM in series [3] (Solubility Buffer D-PBS 1X (pH = 7.2), molarity, D-PBS 1X, pH = 7.2). In addition, the IC50 in series [1] (Homo sapiens) was 4.7 nM; in series [2] (Homo sapiens) it was 8.7 nM.
As for `CN(C)Cc1cccc(C(=O)N[C@H]2[C@H](O)[C@@H](O)[C@@H](O)[C@@H]3NC(=O)c4c(cc5c(c4O)OCO5)[C@@H]23)c1` [Compound 28, 3-((dimethylamino)methyl)-N-((1R,2S,3R,4S,4aR,11bS)-2,3,4,7-tetrahydroxy-6-oxo-1,2,3,4,4a,5,6,11b-octahydro-[1,3]dioxolo[4,5-j]phenanthridin-1-yl)benzamide], the IC50 in series [1] (Homo sapiens) is 130 nM; in series [2] (Homo sapiens) it was 110 nM.
With `N[C@H]1[C@H](O)[C@@H](O)[C@@H](O)[C@@H]2NC(=O)c3c(cc4c(c3O)OCO4)[C@@H]12` [Hydrochloride of Compound 6, (1R,2S,3R,4S,4aR,11bS)-1-amino-2,3,4,7-tetrahydroxy-1,2,3,4,4a,5-hexahydro-[1,3]dioxolo[4,5-j]phenanthridin-6(11bH)-one], in series [3] (D-PBS 1X, pH = 7.2), the “Solubility Buffer D-PBS 1X (pH = 7.2), molarity” value turned out to be 3870 μM. The “Solubility Buffer D-PBS 1X (pH = 7.2), mass by volume unit” value in series [3] (D-PBS 1X, pH = 7.2, listed as compound 6 isolated in the hydrochloride form) amounted to 1250 μg/mL.
As for `O=C1N[C@@H]2C(=C[C@H](O)[C@@H](O)[C@H]2O)c2cc3c(c(O)c21)OCO3` [Narciclasine 1, Narciclasine, reference compound], the solubility in series [3] was 401 µM and 131 µg/mL. Moreover, the IC50 was determined as 22 nM in series [1] and 49 nM in series [2].
